Measured values reported in patent US20120329832A1, “Novel Insect-Repellent Coumarin Derivatives, Syntheses, and Methods of Use” (priority 2011, published 2012).
Read-outs that look alike come from different tables or passages of the source.

Tests used:
[1] = test system: drosophila; experiment: Tests in vivo on drosophila: two-tube repellency test, Repulsive Index; design: key to RI against drosophila (FIG. 1) / RI (FIG. 2 and 3): RI = (N1−N2)/(N1+N2); N1 solvent tube, N2 compound tube; settings: for repellent or attractant activity against drosophila, in words: in vivo; for RI against drosophila (FIG. 1): concentration not given; for repellent activity compared with DEET, in words: 1% concentration in EtOH
Procedure: Description of Test system. To evaluate repellent efficacy, compounds were added to test chambers, each containing 40 drosophila. The test was performed in 3 phases: 1) fast (flies aspirated to test tubes); 2) implementation of the system (addition of filter paper, addition of solvent containing test compound); and 3) counting of the flies (after 22 hours exposure to test compound). The number of drosophila in each tube were counted: number of flies in the “filter paper+Solvent” tube was designated N1 and the number of flies in the “filter paper impregnated with test compound” was designated N2.
The Repulsive Index (R1) is given by the following equation: (N1−N2)/(N1+N2).

[2] = test system: Aedes mosquitoes; settings: cited from earlier work
[3] = test system: Culex; settings: cited from earlier work
[4] = test system: mosquitoes; settings: absence of body odor attractants such as 1-octen-3-ol, lactic acid, or carbon dioxide; cited from earlier work
[5] = test system: acetylcholinesterase; settings: insects and mammals; cited from earlier work
[6] = reported by US EPA; cited from earlier work
[7] = 10% solution of product, share of drosophila in EtOH tube
[8] = 10% solution of product, share of drosophila in product tube versus EtOH tube
[9] = 20% solution of product, share of drosophila in EtOH tube
[10] = 20% solution of product, share of drosophila in product tube versus EtOH tube
[11] = share of drosophila in product tube versus EtOH tube after 22 hours, product concentration not given
[12] = share of drosophila in solvent tube (filter paper + EtOH) after 22 hours, product concentration not given
[13] = 5% solution of product, share of drosophila in EtOH tube
[14] = 5% solution of product, share of drosophila in product tube versus EtOH tube
[15] = share of drosophila in solvent tube (AcOEt), product concentration not given

SMILES: CCCCCCCCN(CCCCCCCC)C(=O)c1ccc2ccc(=O)oc2c1 [EV06096]
- In vivo tests: Tube EtOH [1, 7]: 67.84%
- In vivo tests: Tube product [1, 8]: 32.16%
- In vivo tests: Tube EtOH [1, 9]: 95.33%
- In vivo tests: Tube product [1, 10]: 4.67%
- repellent or attractant activity against drosophila, in words [1]: acted as repellents

SMILES: CCC(C)OC(=O)N1CCCCC1CCO (centres unmarked) [picaridine, hydroxyethyl isobutyl piperidine carboxylate]
- protection against Aedes mosquitoes ([2]; 7% solution): little or no protection
- protection time against Aedes ([2]; 15% solution): about one
- RI against drosophila (FIG. 1) [1]: > 0.6
- protection time against Culex ([3]; 7% solution): about 2.5 hours
- protection time against Culex ([3]; 15% solution): 4.8 h

SMILES: CCCCCCC(C)Oc1ccc2ccc(=O)oc2c1 (centres unmarked) [EV06148]
- repellent activity compared with DEET, in words [1]: remained as effective a repellent as DEET
- In vivo tests: Tube EtOH [1, 7]: 93.66%
- In vivo tests: Tube product [1, 8]: 6.34%
- In vivo tests: Tube EtOH [1, 9]: 96.00%
- In vivo tests: Tube product [1, 10]: 4.00%

SMILES: CCC(C)NC(=O)c1ccc2ccc(=O)oc2c1 (centres unmarked) [EV06166]
- RI against drosophila (FIG. 1) [1]: ~0.2

SMILES: CCCCCCCCN(CCCCCCCC)C(=O)COc1ccc2ccc(=O)oc2c1 [EV06092]
- In vivo tests: Tube product [1, 11]: 32.34%
- In vivo tests: Tube EtOH [1, 12]: 67.66%

SMILES: CCC(CC)Oc1cc(=O)oc2ccccc12 [EV06062]
- repellent activity compared with DEET, in words [1]: remains as good a repellent as DEET
- In vivo tests: Tube EtOH ([1]; 1% solution of product, share of drosophila in EtOH tube): 87.08%
- In vivo tests: Tube product ([1]; 1% solution of product, share of drosophila in product tube versus EtOH tube): 12.92%
- In vivo tests: Tube EtOH [1, 13]: 96.08%
- In vivo tests: Tube product [1, 14]: 3.20%
- In vivo tests: Tube EtOH [1, 7]: 93.10%
- In vivo tests: Tube product [1, 8]: 6.90%
- In vivo tests: Tube EtOH [1, 9]: 98.26%
- In vivo tests: Tube product [1, 10]: 1.74%
- Repulsive Index (RI) ([1]; EtOH, fourth Tested Concentration, 0.056 mmol/mL (1% solution)): 0.742

SMILES: CCC(C)COc1ccc2ccc(=O)oc2c1 (centres unmarked) [EV04094]
- In vivo tests: Tube EtOH [1, 7]: 89.63%
- In vivo tests: Tube product [1, 8]: 10.37%
- In vivo tests: Tube EtOH [1, 9]: 86.47%
- In vivo tests: Tube product [1, 10]: 13.53%

SMILES: C=CCOc1ccc2ccc(=O)oc2c1 [EV04032]
- In vivo tests: Tube AcOEt [1, 15]: 62.25%

SMILES: CCC(C)Oc1ccc2oc(=O)ccc2c1 (centres unmarked) [EV06068]
- In vivo tests: Tube EtOH [1, 7]: 90.91%
- In vivo tests: Tube product [1, 8]: 9.09%
- In vivo tests: Tube EtOH [1, 9]: 93.85%
- In vivo tests: Tube product [1, 10]: 6.15%

SMILES: CCC(C)Oc1cc(=O)oc2ccccc12 (centres unmarked) [EV06088]
- In vivo tests: Tube EtOH [1, 7]: 90.50%
- In vivo tests: Tube product [1, 8]: 9.50%
- In vivo tests: Tube EtOH [1, 9]: 91.04%
- In vivo tests: Tube product [1, 10]: 8.96%

SMILES: CCC(CC)Oc1ccc2oc(=O)ccc2c1 [EV06018]
- In vivo tests: Tube AcOEt [1, 15]: 81.07%

SMILES: CC(C)CCOc1ccc2ccc(=O)oc2c1 [EV06036]
- In vivo tests: Tube EtOH [1, 7]: 86.10%
- In vivo tests: Tube product [1, 8]: 13.90%
- In vivo tests: Tube EtOH [1, 9]: 86.63%
- In vivo tests: Tube product [1, 10]: 13.73%

SMILES: CCC(C)Oc1ccc2ccc(=O)oc2c1 (centres unmarked) [EV04058]
- In vivo tests: Tube EtOH [1, 7]: 91.22%
- In vivo tests: Tube product [1, 8]: 8.78%
- In vivo tests: Tube EtOH [1, 9]: 88.02%
- In vivo tests: Tube product [1, 10]: 11.98%

SMILES: CCCC(C)Oc1cc(=O)oc2ccccc12 (centres unmarked) [EV06098]
- In vivo tests: Tube EtOH [1, 7]: 79.29%
- In vivo tests: Tube product [1, 8]: 20.71%
- In vivo tests: Tube EtOH [1, 9]: 97.57%
- In vivo tests: Tube product [1, 10]: 2.43%

SMILES: CCCCN(CCCC)C(=O)c1ccc2ccc(=O)oc2c1 [EV05138]
- In vivo tests: Tube EtOH [1, 7]: 82.54%
- In vivo tests: Tube product [1, 8]: 17.46%
- In vivo tests: Tube EtOH [1, 9]: 86.27%
- In vivo tests: Tube product [1, 10]: 13.73%

SMILES: CC(C)(C)COc1ccc2ccc(=O)oc2c1 [EV06162]
- repellent or attractant activity against drosophila, in words [1]: strong drosophila attractant

SMILES: CCCCN(CCCC)C(=O)COc1ccc2ccc(=O)oc2c1 [EV05120]
- RI (FIG. 2 and 3) ([1]; 10% solution in EtOH): ~0.8
- In vivo tests: Tube EtOH [1, 7]: 90.36%
- In vivo tests: Tube product [1, 8]: 9.64%
- RI (FIG. 2 and 3) ([1]; 20% solution in EtOH): ~0.7
- In vivo tests: Tube EtOH [1, 9]: 85.58%
- In vivo tests: Tube product [1, 10]: 14.42%
- repellent or attractant activity against drosophila, in words [1]: acted as repellents

SMILES: CC(C)C(C)Oc1cc(=O)oc2ccccc12 (centres unmarked) [EV06128]
- In vivo tests: Tube EtOH [1, 9]: 66.83%
- In vivo tests: Tube product [1, 10]: 33.17%

SMILES: CCCCCCCCOc1ccc2ccc(=O)oc2c1 [EV06144]
- In vivo tests: Tube EtOH [1, 13]: 91.35%
- In vivo tests: Tube product [1, 14]: 8.65%
- In vivo tests: Tube EtOH [1, 7]: 90.00%
- In vivo tests: Tube product [1, 8]: 10.00%
- In vivo tests: Tube EtOH [1, 9]: 91.73%
- In vivo tests: Tube product [1, 10]: 8.37%

SMILES: CCCCCCOc1ccc2ccc(=O)oc2c1 [EV06110]
- In vivo tests: Tube EtOH [1, 7]: 91.09%
- In vivo tests: Tube product [1, 8]: 8.91%
- In vivo tests: Tube EtOH [1, 9]: 89.06%
- In vivo tests: Tube product [1, 10]: 10.94%

SMILES: CCN(CC)C(=O)c1cccc(C)c1 [DEET, N,N-Diethyl-meta-toluamide]
- repellent activity in behavioral test, in words [4]: strong repellent activity
- RI against drosophila (FIG. 1) [1]: > 0.9
- activity on acetylcholinesterase, in words [5]: inhibit the activity
- deaths among the potential DEET-associated seizure cases [6]: 4 deaths

SMILES: C=C(C)C1CC=C(COc2ccc3ccc(=O)oc3c2)CC1 (centres unmarked) [EV04090]
- In vivo tests: Tube CH2Cl2 ([1]; share of drosophila in solvent tube (CH2Cl2), product concentration not given): 70.20%
- Repulsive Index (RI) ([1]; solvent CH2Cl2 according to Table 2, Tested Concentration 0.666 mmol/mL): 0.404

SMILES: CCC(CC)Oc1ccc2ccc(=O)oc2c1 [EV04114]
- In vivo tests: Tube EtOH [1, 7]: 88.00%
- In vivo tests: Tube product [1, 8]: 12.00%
- In vivo tests: Tube EtOH [1, 9]: 93.09%
- In vivo tests: Tube product [1, 10]: 6.91%
- repellent or attractant activity against drosophila, in words [1]: significant repellent activity

SMILES: CCCC(C)Oc1ccc2ccc(=O)oc2c1 (centres unmarked) [EV06044]
- In vivo tests: Tube EtOH [1, 7]: 83.91%
- In vivo tests: Tube product [1, 8]: 16.08%
- In vivo tests: Tube EtOH [1, 9]: 96.12%
- In vivo tests: Tube product [1, 10]: 3.82%
- repellent or attractant activity against drosophila, in words [1]: significant repellent activity

SMILES: CC(C)CCOc1cc(=O)oc2ccccc12 [EV06140]
- In vivo tests: Tube EtOH [1, 7]: 90.10%
- In vivo tests: Tube product [1, 8]: 9.90%
- In vivo tests: Tube EtOH [1, 9]: 91.92%
- In vivo tests: Tube product [1, 10]: 8.08%

SMILES: CCC(C)Oc1ccc2ccc(=O)oc2c1 (centres unmarked) [EV04070]
- In vivo tests: Tube EtOH [1, 7]: 92.79%
- In vivo tests: Tube product [1, 8]: 7.21%
- In vivo tests: Tube EtOH [1, 9]: 91.34%
- In vivo tests: Tube product [1, 10]: 8.66%
- repellent or attractant activity against drosophila, in words [1]: significant repellent activity

SMILES: CCC(C)NC(=O)COc1ccc2ccc(=O)oc2c1 (centres unmarked) [EV06178]
- RI against drosophila (FIG. 1) [1]: ~−0.2
- repellent or attractant activity against drosophila, in words [1]: appeared to provide attractant activity

SMILES: CC[C@H](C)OC(=O)c1ccc2ccc(=O)oc2c1 [EV05178]
- RI (FIG. 2 and 3) ([1]; 10% solution in EtOH): ~0.07
- In vivo tests: Tube EtOH [1, 7]: 54.77%
- In vivo tests: Tube product [1, 8]: 45.23%
- RI (FIG. 2 and 3) ([1]; 20% solution in EtOH): ~0.7
- In vivo tests: Tube EtOH [1, 9]: 85.50%
- In vivo tests: Tube product [1, 10]: 14.50%

SMILES: CC(=O)OC(C)C(=O)Oc1ccc2ccc(=O)oc2c1 (centres unmarked) [EV04122]
- In vivo tests: Tube product [1, 11]: 68.18%
- In vivo tests: Tube EtOH [1, 12]: 31.82%

SMILES: CCCC(C)Oc1ccc2oc(=O)ccc2c1 (centres unmarked) [EV06154]
- repellent activity compared with DEET, in words [1]: performed effectively as a repellent
- In vivo tests: Tube EtOH [1, 7]: 93.03%
- In vivo tests: Tube product [1, 8]: 6.97%
- In vivo tests: Tube EtOH [1, 9]: 96.57%
- In vivo tests: Tube product [1, 10]: 3.43%

SMILES: CC(C)C(C)Oc1ccc2ccc(=O)oc2c1 (centres unmarked) [EV06028]
- In vivo tests: Tube EtOH [1, 7]: 86.74%
- In vivo tests: Tube product [1, 8]: 13.26%
- In vivo tests: Tube EtOH [1, 9]: 94.21%
- In vivo tests: Tube product [1, 10]: 5.79%

SMILES: CCCCCOc1ccc2ccc(=O)oc2c1 [EV06026]
- In vivo tests: Tube EtOH [1, 7]: 87.53%
- In vivo tests: Tube product [1, 8]: 12.47%
- In vivo tests: Tube EtOH [1, 9]: 94.12%
- In vivo tests: Tube product [1, 10]: 5.88%

SMILES: CCCCCOc1cc(=O)oc2ccccc12 [EV06136]
- In vivo tests: Tube AcOEt ([1]; 20% solution of product, share of drosophila in AcOEt tube): 88.56%
- In vivo tests: Tube product ([1]; 20% solution of product, share of drosophila in product tube versus AcOEt tube): 11.44%
